# Reference: paper PMC10526672, “A genome-wide CRISPR/Cas9 screen identifies DNA-PK as a sensitiser to ^177Lutetium-DOTA-octreotate radionuclide therapy” (Theranostics, 2023)
# Legend:
# H1299-7 cells [1] = test: Cell growth assay over 14 days, LuTate alone or with DNA-PK inhibitor; assay type: cell-based, human; settings: parental H1299-7 cells, 20 MBq/mL LuTate
# Description: Total Cells = Cell Number counted (1 well) × Number of Wells required
# Number of Wells required going forward = Total Cells/0.2 × 10^6
# Cell growth was normalised to the appropriate control for each experiment. […] All assays were repeated as at least biological triplicates.
# H1299-7 Artemis KO cells = test: Cell growth assay over 14 days; assay type: cell-based, human
# Description: (§1) Two gRNA (from the Brunello library, as determined in the MaGeCK count files) with the most significant enrichment or depletion for the genes to be validated, were pooled and nucleofected into H1299-7 Cas9 cells, using the Amaxa 4D nucleofector (Lonza), solution SF and program EW-127 (Lonza, optimised protocol for H1299 cells). Cells were nucleofected with 75 pmol of each gRNA in 20 μl (gRNA from Integrated DNA Technologies, sequences in supplementary Table 2). Efficiency of gene knockout was determined at 72 h post nucleofection through western blot or DNA sequencing. The resulting cell lines were H1299-7 Beta-Arrestin 2 knockout (KO), MVP KO, Artemis KO, and DNA-PK KO.
# (§2) For LuTate treatment, aliquots of 4 × 10^6 cells were collected and resuspended in 500 μl DMEM + 1% FCS, and treated with either 0, 5, 10 or 20 MBq/mL LuTate for 4 h in suspension at 37°C and 5% CO2 with mixing every hour. Cells were resuspended in 4 mL full media and plated in 6 well plates at a concentration of 0.5 × 10^6 cells per well. For drug combination experiments, 24 h post LuTate treatment, cells were treated with either 0.5 μM or 1 μM of either AZD-7648 or nedisertib.
# (§3) Cell growth was tracked over a 14-day period. Cells were counted and replated at 0.2 × 10^6 cells per well on Days 2, 6 and 9, with a final count on Day 14. Because of the exponential growth or significant lethality of the various cultures, not all cells were necessarily re-seeded at each subculture interval. However, the cell growth assay data is corrected for the fraction of cells re-plated so the data is expressed for all conditions as though all cells were re-plated at each interval (illustrated in Supplementary Figure S1). The total number of cells is thus the theoretical total number of cells over time if all cells at each subculture interval were re-seeded at identical density, calculated by: […]
# (§4) Cell growth was normalised to the appropriate control for each experiment. For growth curves showing validation of the CRISPR result, results were graphed showing the alteration in cell population, as compared to control, over time (out to Day 14). For all other assays (combination experiments, and experiments using AR42J or SKNBE-2 cells), results are shown comparing cell population at the Day 14 timepoint. All assays were repeated as at least biological triplicates.
# [2] = tested on: H1299-7 Beta-Arrestin 2 KO cells; test: Cell growth assay over 14 days; assay type: cell-based, human
# Description: as §1, §2, §3, §4
# H1299-7 DNA-PK KO cells = test: Cell growth assay over 14 days; assay type: cell-based, human
# Description: as §1, §2, §3, §4
# H1299-7 MVP KO cells [3] = test: Cell growth assay over 14 days; assay type: cell-based, human; settings: 5 MBq/mL LuTate
# Description: as §1, §2, §3, §4
# SKNBE-2 cells = test: Cell growth assay, Day 14; assay type: cell-based, human
# Description: as §2, §3
# Cell growth was normalised to the appropriate control for each experiment. […]
# [4] = tested on: H1299-7 Beta-Arrestin 2 KO cells; test: LuTate retention assay; assay type: cell-based, human; settings: 4 h treatment with 5 MBq/mL LuTate then 24 h in fresh medium, gamma counter, biological triplicates, p-value 0.01 vs control
# Description: (§5) H1299-7, H1299-7 Cas9, MVP KO and Beta-Arrestin 2 KO cells were treated with either 0 or 5 MBq/mL LuTate using the same suspension protocol as for the growth experiments. After 4 h of treatment, cells were washed and triplicate aliquots collected for the 4 h timepoint, and the remaining cells plated in triplicate in 6 well plates for 24 h. For collection of samples, cells were spun down, washed twice, and resuspended in 500 μl PBS. All experiments were repeated as biological triplicates. Samples were stored at RT for 2-3 half-lives of LuTate (2-3 weeks), before being counted on the Captus 4000e gamma counter (Capintec). Percent LuTate retained by the cells was calculated as a percent of total activity added and averaged across the triplicate experiments.
# H1299-7 MVP KO cells [5] = test: LuTate retention assay; assay type: cell-based, human; settings: 5 MBq/mL LuTate for 4 h
# Description: as §5
# H1299-7 cells [6] = test: LuTate retention assay; assay type: cell-based, human; settings: H1299-7 control cells, 4 h treatment with 5 MBq/mL LuTate then 24 h in fresh medium, gamma counter, biological triplicates
# Description: as §5
# H1299-7 xenografts = test: H1299-7 xenograft in BALB/c nude mice; assay type: in vivo; settings: single agent: 6 MBq LuTate single iv dose, or nedisertib 150 mg/kg oral for 6 days
# Description: (§6) All animal experiments were performed with approval from the Peter MacCallum Cancer Centre Animal Experimentation Ethics Committee, and in accordance with the Australian code for the care and use of animals for scientific purposes (8th Edition, 2013). Four- to seven-week-old female BALB/c nude mice were sourced from Animal Resources Centre (Canning Vale, Western Australia). 3 × 10^6 AR42J or 5 × 10^6 H1299-7 cells were subcutaneously implanted onto the right flank of the mice in a 50% Matrigel (Corning):PBS mixture. Mice were weighed, and tumours measured twice weekly using electronic calipers. Tumour volume (mm^3) was calculated as length × width × height × π/6. Once tumours reached a volume of 50-300 mm^3, the animals were randomised into groups of 9-10 mice and injected intravenously with a single dose (5-10 MBq in 100-200 μL) LuTate or vehicle (saline). At 24 h post LuTate injection mice began once-daily oral dosing of DNA-PK inhibitor nedisertib (150 mg/kg) or vehicle (10% DMSO, 40% PEG300, 5% Tween-80, 45% saline) in a volume of 10 ml/kg for 6 consecutive days. Mice were monitored 2-3 times weekly for overall weight as an indicator of murine health and tumour volume measured. Mice were euthanised once the tumour volume exceeded 1200 mm^3.
# AR42J tumours = test: AR42J xenograft in BALB/c nude mice; assay type: in vivo, mouse
# Description: as §6
# unselected tumours = settings: phase I clinical trial, cited from earlier work
# Excerpt: To this end, several clinical trials are evaluating the tolerability and efficacy of nedisertib in humans. […] Current clinical trials are focusing on the combination of nedisertib and radiotherapy in the setting of pancreatic cancers (NCT04172532) and glioblastoma and gliosarcoma (NCT04555577), as well as others. Additionally, there are two studies investigating the combination ...
structure (smiles),measurement,setting,value
"C[C@@H](O)[C@H](NC(=O)[C@@H]1CSSC[C@H](NC(=O)[C@@H](Cc2ccccc2)NC(=O)CN2CCN(CC(=O)[O-])CCN(CC(=O)[O-])CCN(CC(=O)[O-])CC2)C(=O)N[C@@H](Cc2ccc(O)cc2)C(=O)N[C@H](Cc2c[nH]c3ccccc23)C(=O)N[C@@H](CCCCN)C(=O)N[C@@H]([C@@H](C)O)C(=O)N1)C(=O)O.[177Lu+3] [LuTate, ^177Lutetium-DOTA-octreotate]",survival (expansion of parental cells),H1299-7 cells [1],< 0.1%
same,times more sensitive to LuTate than control cells,"H1299-7 Artemis KO cells; 5 MBq/mL LuTate, Day 14, p value 0.0021",20 times
same,cell population by Day 14,H1299-7 Artemis KO cells; 10 MBq/mL LuTate,almost completely eradicated
same,relative growth (% of control) at Day 14,H1299-7 Artemis KO cells; 10 MBq/mL LuTate for 4 h in suspension,0.0038%
same,relative growth (% of control) at Day 14,H1299-7 Artemis KO cells; 20 MBq/mL LuTate for 4 h,0.000296%
same,increase in relative growth versus parental H1299-7 cells,[2]; 5 MBq/mL LuTate,two-fold
same,increase in survival versus parental H1299-7 cells,"[2]; 10 MBq/mL LuTate, p-value 0.015",four-fold
same,times more sensitive to LuTate than control cells,"H1299-7 DNA-PK KO cells; 5 MBq/mL LuTate, Day 14, p value 0.0017",10 times
same,cell population by Day 14,H1299-7 DNA-PK KO cells; 10 MBq/mL LuTate,almost completely eradicated
same,increase in relative growth versus parental H1299-7 cells,H1299-7 MVP KO cells [3],two-fold
same,reduction of survival,"SKNBE-2 cells; 20 MBq/mL LuTate alone, Day 14",50%
same,effect on cell survival,SKNBE-2 cells; LuTate doses of less than 10 MBq/mL,little effect
same,LuTate retained (percent of total activity added),[4],14.5%
same,amount of LuTate retained versus control cells,H1299-7 MVP KO cells [5],no alteration
same,LuTate retained (percent of total activity added),H1299-7 cells [6],32%
same,impact on tumour growth or survival compared to untreated controls,H1299-7 xenografts,no impact
same,tumour control post the end of treatment,"AR42J tumours; AR42J tumours, 9 MBq LuTate single dose with or without 6 days nedisertib 150 mg/kg, 9-10 mice per group",10 days
same,median survival,"AR42J tumours; AR42J xenograft mice, 9 MBq LuTate with or without nedisertib 150 mg/kg for 6 days, vehicle control 10 days, p-value 0.0001",28 days
COc1ccc([C@@H](O)c2cc(-c3ncnc4cc(N5CCOCC5)ccc34)c(F)cc2Cl)nn1 [nedisertib],impact on tumour growth or survival compared to untreated controls,H1299-7 xenografts,no impact
same,efficacy in humans,unselected tumours; unselected tumours,modest efficacy
same,tolerability in humans,unselected tumours,well tolerated
